This is an account of results in ChEMBL document CHEMBL1201862, “PubChem BioAssay data set” (2004).

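Briefly, cells in 96-well plates were exposed to five compound concentrations for 48 h, and endpoints were estimated by linear interpolation. GI50 marks 50% less growth.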 Active and inactive are the calls of the source. Rule as the data show it: active = GI50 up to about 1.1 µM and inactive = higher.

Among the test systems are 786-0; A498; A549; CAKI-1; DMS-114; HCT-15; M14; MOLT-4; NCI-H460; SF-268; SF-295; SF-539; SK-MEL-5; SK-OV-3; SR; SW-620; UACC-62.
Holding throughout (test): growth of human tumour cells (NCI), 48 h

In the case of `CN1COc2c(n(C)c(=O)[nH]c2=O)C1`, the GI50 was > 100 µM (inactive) with 786-0; > 100 µM (inactive) in the assay on A498; > 100 µM (inactive) with A549; > 47.8 µM (inactive) with CAKI-1; > 61.2 µM (inactive) in the assay on DMS-114; 98.2 µM in the assay on HCT-15. Besides, the GI50 in the assay on M14, in the assay with MOLT-4, in the assay on NCI-H460, in the assay on SF-268, in the assay with SF-295 and in the assay on SF-539 was > 100 µM (inactive) each time. The GI50 in the assay with SK-MEL-5 was > 100 µM (inactive); with SK-OV-3, > 100 µM (inactive); in the assay with SR it was 27.2 µM (inactive); in the assay on SW-620, 38.6 µM (inactive); in the assay with UACC-62 it was > 80 µM (inactive).
With `Cc1cc(Cl)ccc1NC(=O)C(=O)C(C(=O)c1ccccc1)C1OC(=O)c2ccccc21` (stereo not drawn), the GI50 was > 100 µM (inactive) in the assay with 786-0; > 100 µM (inactive) with A498; > 100 µM (inactive) with A549; > 100 µM (inactive) in the assay with CAKI-1; > 100 µM (inactive) in the assay on DMS-114; greater than 100 µM with HCT-15. Moreover, the GI50 with M14, in the assay with MOLT-4, in the assay with NCI-H460, in the assay with SF-268, with SF-295 and in the assay on SF-539 was > 100 µM (inactive) each time. For the same molecule, the GI50 in the assay with SK-MEL-5, in the assay with SK-OV-3, in the assay with SR, in the assay on SW-620 and in the assay with UACC-62 was > 100 µM (inactive) throughout.
Turning to `Nc1c([N+](=O)[O-])nc(Cl)c2nncn12`, the GI50 is > 87.7 µM (inactive) in the assay with 786-0; > 100 µM (inactive) in the assay with A498; > 100 µM (inactive) in the assay with A549; > 100 µM (inactive) with CAKI-1; > 42 µM (inactive) in the assay with DMS-114; 19.3 µM in the assay on HCT-15. Further, the GI50 with M14 is > 100 µM (inactive); with MOLT-4, > 100 µM (inactive); with NCI-H460, > 56.6 µM (inactive); with SF-268, > 87.9 µM (inactive); in the assay with SF-295, > 100 µM (inactive); with SF-539, > 95.5 µM (inactive). Besides, the GI50 is > 100 µM (inactive) in the assay with SK-MEL-5; > 100 µM (inactive) with SK-OV-3; 19.9 µM (inactive) in the assay on SR; > 100 µM (inactive) in the assay with SW-620; > 100 µM (inactive) in the assay with UACC-62.
As to `CCOC(=O)/C(=C/c1ccc(C#N)cc1)N(CC)CC`, the GI50 with 786-0 is > 100 µM (inactive); in the assay with A498, > 100 µM (inactive); in the assay on A549, > 100 µM (inactive); with CAKI-1 it was > 100 µM (inactive); in the assay with DMS-114, > 100 µM (inactive); with HCT-15, greater than 100 µM. The GI50 in the assay on M14 was > 100 µM (inactive); in the assay on MOLT-4 it was > 100 µM (inactive); with NCI-H460, > 100 µM (inactive); with SF-268, > 100 µM (inactive); in the assay on SF-295 it was 1.88 µM (inactive); in the assay with SF-539, > 100 µM (inactive). For the same molecule, the GI50 with SK-MEL-5, with SK-OV-3, with SR, in the assay on SW-620 and in the assay with UACC-62 was > 100 µM (inactive) throughout.
